In brackets after ≈: the same amount, converted by molar mass. Like-named read-outs stand apart in the source and are kept apart here. One block for each compound: values may come before it.
Legend:
B. fragilis [1] = test: Agar dilution MIC, anaerobes (Example 5); type: cell-based; settings: Bacteroides fragilis, ATCC25285; B. fragilis MMX 123 (ATCC 25285); QC; read-out: MIC
C. difficile [2] = test: Agar dilution MIC, anaerobes (Example 5); type: cell-based, Clostridium difficile; settings: Clostridioides difficile, read-out: MIC
B. fragilis [3] = settings: B. fragilis MMX 123 (ATCC 25285); cited from earlier work
C. difficile [4] = settings: C. difficile MMX 4381 (ATCC 700057); cited from earlier work
[5] = system: baseline pathogens at the surgical site; test: Phase 2a study: microbiological success / post-baseline microbiology at the index site; type: in vivo, human; settings: Subject 001-002; Subject 006-003, S. aureus (MRSA); 0.5 μg/cm^2 dose group
Method: Microbiology was assessed on Day 1 and at the time of any subsequent surgical procedure at the index site. Samples were collected from the infected bone site or involved tissue adjacent to any implant(s), swabs of the deep infection site, and the superficial tissue/wound closure/sinus tract site. Isolation and identification of aerobic and anerobic bacteria was conducted at a central microbiology laboratory (IHMA, Schaumburg, IL) and susceptibility of the isolates to MBN-101 (BisEDT) and comparator agents was performed per Clinical and Laboratory Standards Institute (CLSI). Parallel sets of samples were analyzed by the local clinical site laboratory to guide patient antibiotic treatment.
Clinical activity of locally administered MBN-101 was assessed by the following: • Proportion of treatment failures. […] Pain intensity at the surgical site was assessed by VAS (0 to 10 scale). • Findings of microbiology evaluations at the surgical site. Microbiologic success was assessed by clearance of infection. • Findings of radiographic evaluations at the surgical site. Radiographic success was assessed by healing on radiologic examination. • Change in serologic markers CRP and ESR at each post-baseline time point. […]

[6] = system: relevant ATCC QC organisms; settings: CLSI established QC range, cited from earlier work
S. aureus ATCC 29213 = settings: per CLSI M100-S24 or provided by Microbion; cited from earlier work
E. coli ATCC 25922 = settings: per CLSI M100-S24 or provided by Microbion; cited from earlier work
N. gonorrhoeae = N. gonorrhoeae MMX 683 (ATCC 49226); cited from earlier work

MIC (B. fragilis [1]): 0.5 µg/mL (≈ 2.92 µM)
MIC (C. difficile [2]; ATCC700057, C. difficile MMX 4381 (ATCC 700057), QC, CCI): 0.5 µg/mL (≈ 2.92 µM)
MIC (C. difficile [2]; C. difficile MMX 8272, ribotype 255, CCI): 0.5 µg/mL (≈ 2.92 µM)
MIC (C. difficile [2]; C. difficile MMX 8279, ribotype 005, CCR): 0.5 µg/mL (≈ 2.92 µM)
MIC (C. difficile [2]; C. difficile MMX 8281, ribotype 010, CCR): 8 µg/mL (≈ 46.7 µM)
MIC (C. difficile [2]; NCTC13307, C. difficile MMX 5681 (NCTC 13307), ribotype 012, CCR): 0.5 µg/mL (≈ 2.92 µM)
MIC (C. difficile [2]; NCTC13336, C. difficile MMX 5680 (NCTC 13336), ribotype 027, CCI METR): > 64 µg/mL
Compound: Cc1ncc([N+](=O)[O-])n1CCO [Metronidazole]
CLSI QC range of MIC (B. fragilis [3]): (0.25-1) μg/mL
CLSI QC range of MIC (C. difficile [4]): (0.12-0.5) μg/mL

Compound: C1C[S][Bi]([S]CC[S][Bi]2[S]CC[S]2)[S]1 [BisEDT, bismuth-1,2-ethanedithiol]
Change of BisEDT MIC, baseline vs post-baseline isolates from the same source [5]: unchanged
MIC QC range (in parentheses) ([6]; E. coli ATCC 25922): (0.5-4)1 μg/mL
MIC QC range (in parentheses) ([6]; P. aeruginosa ATCC 27853): (0.5-4) μg/mL
MIC QC range (in parentheses) ([6]; S. aureus ATCC 29213): (0.12-1) μg/mL
MIC, acceptable range (S. aureus ATCC 29213): 0.13 to 1 µg/mL
MIC, expected results (S. aureus ATCC 29213): 0.25 to 0.5 µg/mL
MIC, acceptable range (E. coli ATCC 25922): 0.5 to 2 µg/mL
MIC, expected results (E. coli ATCC 25922): 1 µg/mL

Compound: CO/N=C(\C(=O)N[C@@H]1C(=O)N2C(C(=O)O)=C(CSc3nc(=O)c(=O)[nH]n3C)CS[C@H]12)c1csc(N)n1 [Ceftriaxone]
CLSI QC range of MIC (N. gonorrhoeae): (0.004-0.015) μg/mL

Source: US20240285571A1, “METHODS OF TREATING BONE INFECTIONS” (MICROBION CORPORATION, priority 2020, published 2024)
